The NIST ThermoML archive (doi:10.1021/acs.jced.8b00110)

Assay: xn = mol fraction of the nth substance listed
Conditions: Liquid, phase equilibration, x1 = 0.05

SMILES | binary diffusion coefficient (303.2 K) | binary diffusion coefficient (313.1 K) | binary diffusion coefficient (323.2 K) | binary diffusion coefficient (333.2 K) | binary diffusion coefficient (343.2 K)
FC(F)(F)/C=C/Cl [(E)-1-chloro-3,3,3-trifluoroprop-1-ene] + CCCCCC[n+]1ccn(C)c1.O=S(=O)([N-]S(=O)(=O)C(F)(F)F)C(F)(F)F | 2.9e-10 m2/s | 3.8e-10 m2/s | 4.1e-10 m2/s | 5.7e-10 m2/s | 8.3e-10 m2/s
FC(F)(F)/C=C/Cl [(E)-1-chloro-3,3,3-trifluoroprop-1-ene] + CCCCCCn1cc[n+](C)c1.F[B-](F)(F)F | 3.3e-10 m2/s | 4.6e-10 m2/s | 6.1e-10 m2/s | 9.6e-10 m2/s | 1.68e-09 m2/s
FC(F)(F)/C=C/Cl [(E)-1-chloro-3,3,3-trifluoroprop-1-ene] + CCCCCCn1cc[n+](C)c1.O=S(=O)([O-])C(F)(F)F | 5.2e-10 m2/s | 7.8e-10 m2/s | 1.04e-09 m2/s | 1.69e-09 m2/s | 2.62e-09 m2/s
